Test results published in US20200216493A1, “ANTIMICROBIAL PEPTIDES” (FERRING B.V., priority 2016, published 2020).
In brackets after ≈: the same amount, converted by molar mass. Bridge positions count the residues as written; N and C are the ends. Square brackets hold non-standard residues; d marks the D form. Peptide text beside a SMILES is read from it. d(aIle) = CC[C@H](C)[C@@H](N)C(=O)O; dNMeF = CN[C@H](Cc1ccccc1)C(=O)O

Key:
E.coli = format: cell-based, Escherichia coli; conditions: for MIC ratio Coli/Staph: ratio of E. coli MIC to S. aureus MIC
Description: (§1) This assay was used to determine the minimum concentration of a test compound (i.e., an antimicrobial peptide described herein) able to inhibit the growth of a bacterial strain of interest. This is a standard method for measuring and comparing the potency of peptide-based antibacterial agents (Steinberg et al., Antimicrobial Agents and Chemotherapy 1997, 41 (8) 1738 - 1742 and Wiegand et al., Nature Protocols 2008, 3, 163-175).
(§2) The MIC is reported in units of μg/mL.
(§3) Bacterial cultures were grown by inoculating Mueller-Hinton Broth (MHB) with 3 or 4 representative colony (typical size, color, and shape) from a bacterial strain grown on a LB agar plate. Inoculated liquid cultures were grown at 37° C. with moderate shaking (200-250 rpm) until bacteria produced a visibly turbid suspension. Bacterial inoculum was approximated by measuring the optical density at 600 nm (0D600) of the bacterial culture against a sterile MHB blank. Typically, OD600=0.10 corresponds to ˜1×10^8 cfu/mL for S.aureus and OD600 =0.15 corresponds to ˜1×10^8 cfu/mL for E.coli.
(§4) Test compounds were prepared as stock solutions in vehicle at a concentration 10 times the highest concentration to be tested for antibacterial activity (usually 320 μg/mL stock solutions). 2x serial dilutions in vehicle (at 10× the final test concentrations) of the test compounds were prepared from the test compound stock solutions in a non-binding 96 well plate.
(§5) In a sterile clear flat bottom 96 well plate, 15 μL of each test compound dilution was added to 135 μL of ˜5×10^5 cfu/mL bacterial culture. Each concentration was tested in duplicate. Each experiment contained positive control wells for bacterial growth (i.e., no test compound added to bacteria) and sterility controls wells (i.e., sterile MHB and no test compounds added). 96 well plates containing bacterial cultures and test compounds were incubated at 37° C. for 16-20 hours with shaking at 200 rpm.
(§6) After incubation, the MIC of each test compound was determined by measuring the OD600 of each well using a plate reader. Wells with OD600 >0.08 were considered to have bacterial growth and wells with OD600<0.08 were considered to have no bacterial growth. The lowest concentration of test agent able to inhibit bacterial growth (0D600<0.08 after 16-20 hours) was defined as the MIC.

S.aureus = format: cell-based, Staphylococcus aureus
Description: as §1, §2, §3, §4, §5, §6

S. aureus (14 isolates) = format: cell-based, Staphylococcus aureus; conditions: 20 h
Description: (§7) The broth microdilution susceptibility assay followed the procedure described by the Clinical and Laboratory Standards Institute (CLSI) in CLSI document M7-A10.
(§8) The following bacteria isolates were tested:
(§9) S.aureus, S.epidermidis, E.faecalis, and E.faecium colonies were grown on TSA (Tryptone Soya Agar; cat.N. P05012A -OXOID) S.pneumoniae and S.pyogenes colonies were grown on TSASB ((TSA) Agar +5% Sheep Blood; cat.N. PB5012A -OXOID). An inoculum was prepared by making a direct saline suspension of isolated colonies selected from an 18 to 24 hours agar plate incubated at 35±2 ° C. in ambient air. The suspension was adjusted to achieve a turbidity equivalent to a 0.5 McFarland turbidity standard (1 to 2 ×10^8 Colony Forming Units (CFU)) and diluted 200 fold within 15 minutes in broth. (S.aureus, S.epidermidis, E.faecalis, and E.faecium were diluted in CAMHB: Mueller Hinton Broth 2, Cation-Adjusted (cat. N. 90922 Fluka); S.pneumoniae and S.pyogenes were diluted in CAMHB +2.5% lysed horse blood. All broth contained 0.002% polysorbate 80.
(§10) 96-well plates were prepared containing 1 μL of the test compound (at 100× desired test concentration in 100% DMSO); compounds were tested at 8 final concentrations, i.e. 16 μg/mL, 8 μg/mL, 4 μg/mL, 2 μg/mL, 1 μg/mL, 0.5 μg/mL, 0.25 μg/mL, and 0.125 μg/mL. 100 μL of the broth dilution was dispensed in each well plate to have a final bacterial concentration in plate of ˜5×10^5 CFU/mL. The plates were incubated at 35±2° C. in ambient air for 20 hours.

[1] = tested on: S. epidermidis (5 isolates); format: cell-based, Staphylococcus epidermidis; conditions: 20 h
Description: as §7, §8, §9, §10

[2] = tested on: S. pneumoniae (8 isolates); format: cell-based, Streptococcus pneumonia; conditions: 20 h
Description: as §7, §8, §9, §10

S. pyogenes (2 isolates) = format: cell-based, Streptococcus pyogenes; conditions: 20 h
Description: as §7, §8, §9, §10

E. faecalis (5 isolates) = format: cell-based, Enterococcus faecalis; conditions: 20 h
Description: as §7, §8, §9, §10

E. faecium (3 isolates) = format: cell-based, Enterococcus faecium; conditions: 20 h
Description: as §7, §8, §9, §10

in vitro = format: cell-based; conditions: human, HepG2 cells
Description: Compounds were tested for cytotoxicity to a mammalian cell line HepG2 (Human hepatocyte carcinoma from ECACC (85011430)). Hep G2 cells were seeded into 96-well plates, 7500 cells/well in 100 μl medium (Minimum Essential Medium (Gibco 21090) supplemented with 2 mM L-Glutamine, 1% non-essential amino acids and 10% fetal bovine serum) and incubated for 20 hours at 37° C., 5% CO2. 100 μL of fresh medium containing a test compound or DMSO (for control) at 2× final concentration were added and incubated for 48 hours at 37° C., 5% CO2. The final concentration of DMSO in plate was 1%. At the end of this incubation, 20 μl MTT (Thiazolyl Blue Tetrazolium Bromide) solution 5 mg/ml in H2O (0.5 mg/ml final in well) was added to all wells. Cells were incubated with MTT for 4 hours at 37° C., 5% CO2. After incubation, medium containing MTT was removed; 200 μl of DMSO was added in each well and plates were put on a shaker for 5 minutes. Absorbance was read on a SpectraMax plate reader at 570 nm. Specific absorbance (Specific A570) was calculated by subtracting the mean absorbance values of the blank wells (no HepG2 cells) from each well. Control values were determined from wells containing cells and treated with medium+1% DMSO only (no test compound). % viability was calculated as:
(Specific A570test compound/Specific A570control)×100.

Structure (SMILES)	MIC E. coli (E.coli) [µg/mL]	MIC ratio Coli/Staph (E.coli)	MIC S. aureus (S.aureus) [µg/mL]	S. Aureus (14) MIC90 (S. aureus (14 isolates)) [µg/mL]	S. epidermidis (MIC90) (5) [1] [µg/mL]	S. pneumoniae (8) MIC90 [2] [µg/mL]	S. pyogenes (2) MIC90 (S. pyogenes (2 isolates)) [µg/mL]	E. faecalis (5) MIC90 (E. faecalis (5 isolates)) [µg/mL]	E. faecium (3) MIC90 (E. faecium (3 isolates)) [µg/mL]	viability at 48 h, 100 µM (in vitro) [%]	MIC C. difficile (C. difficile) [µg/mL]	MIC B. fragilis (B. fragilis) [µg/mL]
CC[C@H](C)[C@H](NC(=O)[C@@H](Cc1ccc2ccccc2c1)NC)C(=O)N[C@@H](CO)C(=O)N[C@H](CCC(N)=O)C(=O)N[C@@H](C(=O)N[C@H](C(=O)N[C@@H](CO)C(=O)N[C@H]1C(=O)N[C@@H](C)C(=O)N[C@@H](CCCCNC(=N)N)C(=O)N[C@@H]([C@@H](C)CC)C(=O)O[C@H]1C)[C@@H](C)CC)[C@@H](C)CC [Compound 75, H-D-Me2Nal-Ile-Ser-D-Gln-D-aIle-Ile-Ser-c(D-Thr-Ala-Har-Ile)]	>16	>530	0.06 (≈ 0.0459 µM)	≤0.12	≤0.12	≤0.12	≤0.12	≤0.12	≤0.12	119	0.015 to 0.03	>32
CC[C@H](C)[C@H](NC(=O)[C@@H](Cc1ccccc1)NC)C(=O)N[C@@H](CO)C(=O)N[C@H](CCC(N)=O)C(=O)N[C@@H](C(=O)N[C@H](C(=O)N[C@@H](CO)C(=O)N[C@H]1C(=O)N[C@@H](C)C(=O)N[C@@H](CCCCN)C(=O)N[C@@H]([C@@H](C)CC)C(=O)O[C@H]1C)[C@@H](C)CC)[C@@H](C)CC [[Lys10]teixobactin, reference compound]	–	–	–	0.5	0.5	≤0.12	0.25	2	1	95.6	–	–
CC[C@H](C)[C@H](NC(=O)[C@@H](Cc1ccccc1)NC)C(=O)N[C@@H](Cc1cccc2ccccc12)C(=O)N[C@H](CCC(N)=O)C(=O)N[C@@H](C(=O)N[C@H](C(=O)N[C@@H](CO)C(=O)N[C@H]1C(=O)N[C@@H](C)C(=O)N[C@@H](CCCCNC(=N)N)C(=O)N[C@@H]([C@@H](C)CC)C(=O)O[C@H]1C)[C@@H](C)CC)[C@@H](C)CC [Compound 73, H-D-MePhe-Ile-lNal-D-Gln-D-aIle-Ile-Ser-c(D-Thr-Ala-Har-Ile)]	–	–	–	0.5	0.25	≤0.12	≤0.12	0.5	0.25	113	–	–
CC[C@H](C)[C@H](NC(=O)[C@@H](Cc1ccccc1)NC)C(=O)N[C@@H](CO)C(=O)N[C@H](CCC(N)=O)C(=O)N[C@@H](C(=O)N[C@H](C(=O)N[C@@H](CO)C(=O)N[C@H]1C(=O)N[C@@H](C)C(=O)N[C@@H](CCCNC(=N)N)C(=O)N[C@@H]([C@@H](C)CC)C(=O)O[C@H]1C)[C@@H](C)CC)[C@@H](C)CC [[Arg10]teixobactin, reference compound]	–	–	–	0.5	0.5	0.25	0.25	2	2	115	–	–
CC[C@H](C)[C@H](NC(=O)[C@@H](Cc1ccccc1)NC)C(=O)N[C@@H](Cc1c[nH]c2ccccc12)C(=O)N[C@H](CCC(N)=O)C(=O)N[C@@H](C(=O)N[C@H](C(=O)N[C@@H](CO)C(=O)N[C@H]1C(=O)N[C@@H](C)C(=O)N[C@@H](CCCCNC(=N)N)C(=O)N[C@@H]([C@@H](C)CC)C(=O)O[C@H]1C)[C@@H](C)CC)[C@@H](C)CC [Compound 2, H-D-MePhe-Ile-Trp-D-Gln-D-aIle-Ile-Ser-c(D-Thr-Ala-Har-Ile)]	>32	>356	0.09 (≈ 0.0663 µM)	–	–	–	–	–	–	–	0.06 (≈ 0.0442 µM)	>32
CC[C@H](C)[C@H](NC(=O)[C@@H](Cc1ccccc1)NC)C(=O)N[C@@H](CO)C(=O)N[C@H](CCCCN)C(=O)N[C@@H](C(=O)N[C@H](C(=O)N[C@@H](CO)C(=O)N[C@H]1C(=O)N[C@@H](C)C(=O)N[C@@H](CCCCN)C(=O)N[C@@H]([C@@H](C)CC)C(=O)O[C@H]1C)[C@@H](C)CC)[C@@H](C)CC [Compound 14, H-D-MePhe-Ile-Ser-D-Lys-D-aIle-Ile-Ser-c(D-Thr-Ala-Lys-Ile)] (H-[dNMeF]IS[dK][d(aIle)]IS[dT]AKI; ester 8-C)	4 (≈ 3.29 µM)	16	0.25 (≈ 0.206 µM)	–	–	–	–	–	–	–	0.06 to 0.12	>32
CC[C@H](C)[C@H](NC(=O)[C@@H](Cc1ccccc1)NC)C(=O)N[C@@H](CO)C(=O)N[C@H](CCC(N)=O)C(=O)N[C@@H](C(=O)N[C@H](C(=O)N[C@@H](CO)C(=O)N[C@H]1C(=O)N[C@@H](C)C(=O)N[C@@H](CCCCCN)C(=O)N[C@@H]([C@@H](C)CC)C(=O)O[C@H]1C)[C@@H](C)CC)[C@@H](C)CC [Compound 9, H-D-MePhe-Ile-Ser-D-Gln-D-aIle-Ile-Ser-c(D-Thr-Ala-hLys-Ile)]	16 (≈ 13 µM)	123	0.13 (≈ 0.106 µM)	–	–	–	–	–	–	–	0.12 (≈ 0.0975 µM)	>32
